Literature values, collected in patent publication US6995149B1, “Contraceptive process and kit for female mammals, comprising a combination of gestagen and oestrogen” (Schering AG, priority 1995, dated 2006).

Columns and labels:
women = details: daily dose of 70 to 80 μg, pure gestagen preparation; in almost all women
[1] = very small doses; ovulation is not always inhibited

SMILES | inhibition of ovulation (women) | contraceptive protection [1]
C#C[C@]1(O)CC[C@H]2[C@@H]3CCC4=CCCC[C@@H]4[C@H]3C(=C)C[C@@]21CC [desogestrel] | In almost all women, these dosages cause inhibition of ovulation | 
CC(=O)O[C@]1(C(C)=O)CC[C@H]2[C@@H]3C=C(Cl)C4=CC(=O)CC[C@]4(C)[C@H]3CC[C@@]21C [chloromadinone acetate] |  | afforded contraceptive protection
C#C[C@]1(O)CC[C@H]2[C@@H]3CCC4=CC(=O)CC[C@@H]4[C@H]3C(=C)C[C@@]21CC [3-ketodesogestrel] | In almost all women, these dosages cause inhibition of ovulation | 
